Source: patent US20120077818A1, “COMPOSITIONS COMPRISING TRANSNORSERTRALINE AND SEROTONIN RECEPTOR 1A AGONISTS/ANTAGONISTS AND USES THEREOF” (Sunovion Pharmaceuticals Inc., priority 2009, published 2012)
Entries after “also recorded” stand apart in the source; their conditions may differ.

Test system: dorsal raphe 5-HT neurons
Test: In vivo electrophysiological recordings of dorsal raphe (DR) 5-HT neurons
Set-up: species or system rat
Protocol: Male Sprague Dawley rats (Charles River, St. Constant, QC) weighing 250 to 300 g, were used for the experiments. They were housed individually and kept under standard laboratory conditions (12:12 hour light/dark cycle with free access to food and water). All animals were handled according to the guidelines of the Canadian Council on Animal Care (CCAC) and protocols in this study were approved by the local Animal Care Committee (Ottawa Health Research Institute, Ottawa, ON, Canada).
Rats were anaesthetized with chloral hydrate (400 mg/kg; i.p.) and placed into a stereotaxic frame. The extracellular recordings of 5-HT neurons in the dorsal raphe (“DR”) were carried out using single-barrelled glass micropipettes (R&D Scientific Glass, Spencerville, Md.) preloaded with a 2 M NaCl solution. Their impedance typically ranged between 4-7 MΩ.
The single-barrelled glass micropipettes were positioned using the following coordinates (in mm from lambda): AP, +1.0 to 1.2; L, 0±0.1; V, 5 to 7. The presumed 5-HT neurons were then identified using the following criteria: a slow (0.5-2.5 Hz) and regular firing rate and long-duration (2-5 ms) bi- or triphasic extracellular waveform (Aghajanian and Vandermaelen, 1982b). […] This occasional firing pattern of 5-HT neurons was analyzed by spike interval burst analysis following the criteria set by Hajos et al. The onset of a burst was defined as the occurrence of two spikes with an interspike interval shorter than 0.005 s.
The percent of baseline firing rate were measured 60 seconds after systemic administration of the triple reuptake inhibitor. Various parameters were determined to examine the electrophysiological effects of co-administration of a transnorsertraline with WAY-100635. These parameters included the number of single spikes, bursts, cells per track and the firing rate of 5-HT neurons.
Electrophysiological data expressed as means±S.E.M of percent of baseline firing rate or as means±S.E.M of single spikes or bursts measured from the same neurons. Data were analyzed by using a one- or two-ways analysis of variance (ANOVA), with treatment, treatment and pre-treatment or treatment and brain region as main factors. Fisher's protected least significant difference test (Fisher's PLSD-test) was used to analyze the statistical significance between groups. The paired Student's t test was used in experiments comparing two groups. In each experiment, a level of p<0.05 was accepted as evidence for a statistically significant effect.

[1] = rats pre-treated with WAY-100635

SMILES	number of bursts of 5-HT neurons (effect in words) [1]	number of single spikes of 5-HT neurons (effect in words) [1]	DR 5-HT firing rate (effect in words) (rats pre-treated with WAY-100635, (1R,4S)-transnorsertraline 0.5-2 mg/kg iv)	spontaneous firing rate of DR 5-HT neurons (effect in words) (WAY-100635 alone, 100 μg/kg iv)	spontaneous firing rate of DR 5-HT neurons (WAY-100635 alone, 100 μg/kg iv, printed as 1.3±0.1 vs 1.4±0.1 (n=8), in Hz (unit assumed))
N[C@@H]1CC[C@@H](c2ccc(Cl)c(Cl)c2)c2ccccc21 [(1R,4S)-transnorsertraline, (1R,4S)-trans-4-(3,4-dichlorophenyl)-1,2-3,4-tetrahydro-1-naphthalenamine]	significantly increased	significantly increased	significant increase; also recorded: markedly increased	–	–
COc1ccccc1N1CCN(CCN(C(=O)C2CCCCC2)c2ccccn2)CC1 [WAY-100635, reference compound]	–	–	–	did not alter	1.4±0.1
